Source: article PMC9921896 (Molecules, 2023)

Assays:
Assay type in all cases: biochemical
CYP2B6 [1] = molecular target: T1, CYP2B6 (Homo sapiens, UniProt P20813); experiment: CYP inhibition assay in HLM, single concentration; conditions: human liver microsomes, probe Bupropion, n = 3, read-out: % Inhibition (CYP 2B6)
T1 construct: Using HLM as the enzyme source; from tissue; host or cells: human liver microsomes
T1 sequence (P20813 1-491): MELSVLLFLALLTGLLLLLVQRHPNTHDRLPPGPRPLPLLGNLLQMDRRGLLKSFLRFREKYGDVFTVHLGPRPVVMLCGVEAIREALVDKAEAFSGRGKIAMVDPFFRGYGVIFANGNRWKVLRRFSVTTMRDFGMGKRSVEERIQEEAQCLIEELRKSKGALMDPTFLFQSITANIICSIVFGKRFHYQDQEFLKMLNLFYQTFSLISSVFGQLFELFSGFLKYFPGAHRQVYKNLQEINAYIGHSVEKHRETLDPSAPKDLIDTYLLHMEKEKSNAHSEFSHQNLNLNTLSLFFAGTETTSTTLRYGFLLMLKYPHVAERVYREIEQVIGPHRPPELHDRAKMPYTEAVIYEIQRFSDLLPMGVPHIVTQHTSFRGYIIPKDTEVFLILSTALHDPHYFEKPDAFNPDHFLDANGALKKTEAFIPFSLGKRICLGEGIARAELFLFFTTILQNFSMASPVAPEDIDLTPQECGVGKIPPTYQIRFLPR
Method: (§1) The regulatory bodies and pharmaceutical firms are quite concerned about CYP inhibition. Therefore, medicinal chemists often change the lead structure to decrease CYP inhibition. If left uncorrected, it can cause DDIs, enhanced drug concentration, and, thus, toxicity.
(§2) Using HLM as the enzyme source, the CYP inhibition potential was employed to assess the inhibitory effect of the TbB ligands on the CYP1A2, 2B6, 2C8, 2C9, 2C19, and 2D6 3A4 isoforms. Phenacetin (CYP1A2, […]), tolbutamide (CYP2C9, 20 mM), bupropion (CYP2B6, […]), mephenytoin (CYP2C19, […]), midazolam (CYP3A4, 5 mM), amodiaquine (CYP2C8, 0.02 mM), and dextromethorphan (CYP2D6, 5 mM) were used as probe substrates. The test substance included TbB ligand (final concentrations of […] for each) and HLMs (final concentration of 0.1 mg protein per mL), with or without 1.0 mM NADPH. The reaction was started by adding pre-incubated 25 μ L of NADPH into all wells and incubate at 37 °C for 10 min for 3A4 and 20 min for remaining all isoforms. The reaction was stopped by adding 100 μ L of stop solution to all wells. The samples were centrifuged at 4000 rpm for 10 min at 4 °C. Supernatant (100 μ L) was withdrawn, mixed with 200 μ L of water followed by LC-MS/MS analysis.

CYP2C8 = molecular target: T2, CYP2C8 (Homo sapiens, UniProt P10632); experiment: CYP inhibition assay in HLM, single concentration; conditions: human liver microsomes, probe Amodiaquine, n = 3, read-out: % Inhibition (CYP 2C8)
T2 construct: Using HLM as the enzyme source; from tissue; host or cells: human liver microsomes
T2 sequence (P10632 1-490): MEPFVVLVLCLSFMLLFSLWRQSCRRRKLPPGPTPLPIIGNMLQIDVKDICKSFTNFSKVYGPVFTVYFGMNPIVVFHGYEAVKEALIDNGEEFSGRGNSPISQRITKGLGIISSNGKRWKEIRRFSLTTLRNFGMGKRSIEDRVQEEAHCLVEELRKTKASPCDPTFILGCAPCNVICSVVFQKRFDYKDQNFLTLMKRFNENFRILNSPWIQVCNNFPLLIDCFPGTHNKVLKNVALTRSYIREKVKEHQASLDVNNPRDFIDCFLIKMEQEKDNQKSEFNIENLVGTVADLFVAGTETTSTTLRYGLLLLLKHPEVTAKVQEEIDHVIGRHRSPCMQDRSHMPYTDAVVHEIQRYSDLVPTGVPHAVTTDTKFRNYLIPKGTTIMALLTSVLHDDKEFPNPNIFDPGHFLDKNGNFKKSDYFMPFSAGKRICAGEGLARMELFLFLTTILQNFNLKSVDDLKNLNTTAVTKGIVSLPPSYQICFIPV
Method: as §1, §2

CYP2C9 = molecular target: T3, CYP2C9 (Homo sapiens, UniProt P11712); experiment: CYP inhibition assay in HLM, single concentration; conditions: human liver microsomes, probe Tolbutamide, n = 3, read-out: % Inhibition (CYP 2C9)
T3 construct: Using HLM as the enzyme source; from tissue; host or cells: human liver microsomes
Method: as §1, §2

CYP2D6 = molecular target: T4, CYP2D6 (Homo sapiens, UniProt P10635); experiment: CYP inhibition assay in HLM, single concentration; conditions: human liver microsomes, probe Dextromethorphan, n = 3, read-out: % Inhibition (CYP 2D6)
T4 construct: Using HLM as the enzyme source; from tissue; host or cells: human liver microsomes
Method: as §1, §2

CYP2B6 [2] = molecular target: T1, CYP2B6; experiment: Single concentration Kobs assay (time-dependent inhibition) in HLM; conditions: human liver microsomes, significant if >50%, read-out: 2B6 R_Inh% (reversible inhibition)

T4 sequence (P10635 whole entry): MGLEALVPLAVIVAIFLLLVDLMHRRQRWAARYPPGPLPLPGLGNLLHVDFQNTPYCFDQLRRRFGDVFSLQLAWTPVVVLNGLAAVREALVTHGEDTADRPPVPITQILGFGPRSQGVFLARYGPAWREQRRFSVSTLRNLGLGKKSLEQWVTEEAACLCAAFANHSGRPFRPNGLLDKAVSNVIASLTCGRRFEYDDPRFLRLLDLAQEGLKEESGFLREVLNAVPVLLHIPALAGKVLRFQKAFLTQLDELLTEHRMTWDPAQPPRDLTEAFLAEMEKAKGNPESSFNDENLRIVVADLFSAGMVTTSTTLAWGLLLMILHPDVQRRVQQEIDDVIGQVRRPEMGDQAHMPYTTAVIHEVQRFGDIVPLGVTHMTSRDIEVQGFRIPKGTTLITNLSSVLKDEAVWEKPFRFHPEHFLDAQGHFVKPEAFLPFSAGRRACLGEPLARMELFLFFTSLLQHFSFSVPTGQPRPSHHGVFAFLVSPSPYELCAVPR
T3 sequence (P11712 whole entry): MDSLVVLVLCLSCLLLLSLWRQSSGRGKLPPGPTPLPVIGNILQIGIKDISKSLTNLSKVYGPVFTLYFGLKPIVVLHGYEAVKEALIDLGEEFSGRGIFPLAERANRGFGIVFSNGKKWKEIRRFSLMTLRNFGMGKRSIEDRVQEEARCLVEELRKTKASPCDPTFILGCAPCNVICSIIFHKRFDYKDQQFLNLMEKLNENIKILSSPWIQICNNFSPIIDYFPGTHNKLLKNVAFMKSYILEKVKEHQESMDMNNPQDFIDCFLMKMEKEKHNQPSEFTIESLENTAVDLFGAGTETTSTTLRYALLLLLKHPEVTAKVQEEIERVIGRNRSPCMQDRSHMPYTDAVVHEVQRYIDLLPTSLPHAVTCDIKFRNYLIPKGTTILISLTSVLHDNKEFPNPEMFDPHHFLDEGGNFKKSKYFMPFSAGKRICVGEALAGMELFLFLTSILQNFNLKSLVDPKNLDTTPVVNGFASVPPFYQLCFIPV

inhibition at 20 min, 10 µM (CYP2B6 [1]) | inhibition at 20 min, 10 µM (CYP2C8) | inhibition at 20 min, 10 µM (CYP2C9) | inhibition at 20 min, 10 µM (CYP2D6) | inhibition at 30 min (CYP2B6 [2]) | Structure (SMILES)
47% | 39% | 68% | -2% | < 50% | COc1cc(-c2nnn(-c3cc(OC)c(O)c(OC)c3)n2)cc(OC)c1O [223-2]
54% | 82% | 90% | -4% | < 50% | Oc1ccc(-c2nnn(-c3ccc(O)cc3)n2)cc1 [223-10]
80% | 88% | 82% | 96% | < 50% | Cc1cc(-c2nnn(-c3cc(C)c(O)c(C)c3)n2)cc(C)c1O [223-3]
